The supplement of paper PMC10307832

Key:
Assay in all cases: relative viability (nuclei count vs DMSO), 5 days (fraction); higher = more cells survive
[1] = test system: NCI-H596
Outline: (§1)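 The day after seeding in 1536-well plates, lung cancer cell lines were treated by pin tool with a single drug, or with a fixed anchor-drug dose together with five library-drug doses (not always all listed) in √10 steps. After 5 days, a combined fix-and-stain solution (final 0.05% Triton X-100, 1% formaldehyde, 1 ug/ml Hoechst) was added. Nuclei counted on 4× images gave relative viability as treated counts over vehicle counts, reported as the median of duplicate plates.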

[2] = test system: NCI-H1648
Outline: as §1

[3] = test system: NCI-H522
Outline: as §1

[4] = test system: NCI-H1993
Outline: as §1

[5] = test system: NCI-H23
Outline: as §1

[6] = test system: A549
Outline: as §1

CC1(C)CCC(c2ccc(Cl)cc2)=C(CN2CCN(c3ccc(C(=O)NS(=O)(=O)c4ccc(N[C@H](CCN5CCOCC5)CSc5ccccc5)c(S(=O)(=O)C(F)(F)F)c4)cc3)CC2)C1 [Navitoclax] + CC(=O)Nc1cccc(-n2c(=O)n(C3CC3)c(=O)c3c(Nc4ccc(I)cc4F)n(C)c(=O)c(C)c32)c1 [Trametinib] (partner 0.02 µM)
relative viability ([1]; first compound 0.005 µM): 0.796 | relative viability ([1]; first compound 0.01581 µM): 1.22 | relative viability ([1]; first compound 0.05 µM): 0.693 | relative viability ([1]; first compound 0.1581 µM): 0.79 | relative viability ([1]; first compound 0.5 µM): 0.776 | relative viability ([2]; first compound 0.005 µM): 0.541 | relative viability ([2]; first compound 0.01581 µM): 0.427 | relative viability ([2]; first compound 0.1581 µM): 0.453 | relative viability ([2]; first compound 0.5 µM): 0.402 | relative viability ([3]; first compound 0.005 µM): 0.753 | relative viability ([3]; first compound 0.01581 µM): 0.782 | relative viability ([3]; first compound 0.05 µM): 0.778 | relative viability ([3]; first compound 0.1581 µM): 0.627 | relative viability ([3]; first compound 0.5 µM): 0.725 | relative viability ([4]; first compound 0.005 µM): 0.521 | relative viability ([4]; first compound 0.01581 µM): 0.513 | relative viability ([4]; first compound 0.05 µM): 0.508 | relative viability ([4]; first compound 0.1581 µM): 0.454 | relative viability ([4]; first compound 0.5 µM): 0.642 | relative viability ([5]; first compound 0.005 µM): 0.338 | relative viability ([5]; first compound 0.01581 µM): 0.436 | relative viability ([5]; first compound 0.05 µM): 0.443 | relative viability ([5]; first compound 0.1581 µM): 0.357 | relative viability ([5]; first compound 0.5 µM): 0.412

NC(=O)Nc1cc(-c2cccc(F)c2)sc1C(=O)N[C@H]1CCCNC1 [AZD7762] + Nc1ncn([C@H]2C[C@H](O)[C@@H](CO)O2)c(=O)n1 [Decitabine] (partner 2 µM)
relative viability ([1]; first compound 0.01 µM): 0.978 | relative viability ([1]; first compound 0.03162 µM): 1.02 | relative viability ([1]; first compound 0.1 µM): 1.01 | relative viability ([1]; first compound 0.3162 µM): 1.1 | relative viability ([1]; first compound 1 µM): 1.03 | relative viability ([2]; first compound 0.01 µM): 0.512 | relative viability ([2]; first compound 0.03162 µM): 0.671 | relative viability ([2]; first compound 0.1 µM): 0.415 | relative viability ([2]; first compound 0.3162 µM): 0.462 | relative viability ([2]; first compound 1 µM): 0.437 | relative viability ([3]; first compound 0.01 µM): 0.668 | relative viability ([3]; first compound 0.03162 µM): 0.709 | relative viability ([3]; first compound 0.1 µM): 0.714 | relative viability ([3]; first compound 0.3162 µM): 0.689 | relative viability ([3]; first compound 1 µM): 0.686 | relative viability ([4]; first compound 0.01 µM): 0.626 | relative viability ([4]; first compound 0.03162 µM): 0.606 | relative viability ([4]; first compound 0.1 µM): 0.657 | relative viability ([4]; first compound 0.3162 µM): 0.597 | relative viability ([4]; first compound 1 µM): 0.638 | relative viability ([5]; first compound 0.01 µM): 0.329 | relative viability ([5]; first compound 0.03162 µM): 0.376 | relative viability ([5]; first compound 0.1 µM): 0.296 | relative viability ([5]; first compound 0.3162 µM): 0.331 | relative viability ([5]; first compound 1 µM): 0.284 | relative viability ([6]; first compound 0.01 µM): 0.305 | relative viability ([6]; first compound 0.03162 µM): 0.252 | relative viability ([6]; first compound 0.1 µM): 0.27 | relative viability ([6]; first compound 0.3162 µM): 0.281 | relative viability ([6]; first compound 1 µM): 0.202

CC1(C)CCC(c2ccc(Cl)cc2)=C(CN2CCN(c3ccc(C(=O)NS(=O)(=O)c4ccc(N[C@H](CCN5CCOCC5)CSc5ccccc5)c(S(=O)(=O)C(F)(F)F)c4)cc3)CC2)C1 [Navitoclax] + Nc1ncn([C@H]2C[C@H](O)[C@@H](CO)O2)c(=O)n1 [Decitabine] (partner 2 µM)
relative viability ([1]; first compound 0.005 µM): 1.04 | relative viability ([1]; first compound 0.01581 µM): 0.951 | relative viability ([1]; first compound 0.05 µM): 0.786 | relative viability ([1]; first compound 0.1581 µM): 0.998 | relative viability ([1]; first compound 0.5 µM): 1.01 | relative viability ([2]; first compound 0.005 µM): 0.528 | relative viability ([2]; first compound 0.01581 µM): 0.511 | relative viability ([2]; first compound 0.1581 µM): 0.518 | relative viability ([2]; first compound 0.5 µM): 0.44 | relative viability ([3]; first compound 0.005 µM): 0.685 | relative viability ([3]; first compound 0.01581 µM): 0.696 | relative viability ([3]; first compound 0.05 µM): 0.699 | relative viability ([3]; first compound 0.1581 µM): 0.547 | relative viability ([3]; first compound 0.5 µM): 0.712 | relative viability ([4]; first compound 0.005 µM): 0.659 | relative viability ([4]; first compound 0.01581 µM): 0.751 | relative viability ([4]; first compound 0.05 µM): 0.62 | relative viability ([4]; first compound 0.1581 µM): 0.56 | relative viability ([4]; first compound 0.5 µM): 0.596 | relative viability ([5]; first compound 0.005 µM): 0.287 | relative viability ([5]; first compound 0.01581 µM): 0.32 | relative viability ([5]; first compound 0.05 µM): 0.307 | relative viability ([5]; first compound 0.1581 µM): 0.331 | relative viability ([5]; first compound 0.5 µM): 0.272 | relative viability ([6]; first compound 0.005 µM): 0.252 | relative viability ([6]; first compound 0.01581 µM): 0.249 | relative viability ([6]; first compound 0.05 µM): 0.204 | relative viability ([6]; first compound 0.1581 µM): 0.271 | relative viability ([6]; first compound 0.5 µM): 0.246

O=C(O)c1ccc(-c2c[nH]c3ncc(-c4ccccc4)cc23)cc1C1CCCC1 + CC(=O)c1c(C)c2cnc(Nc3ccc(N4CCNCC4)cn3)nc2n(C2CCCC2)c1=O [Palbociclib] (partner 0.5 µM)
relative viability ([2]; first compound 0.04 µM): 0.285 | relative viability ([2]; first compound 0.1265 µM): 0.294 | relative viability ([2]; first compound 0.4 µM): 0.27 | relative viability ([3]; first compound 0.04 µM): 0.977 | relative viability ([3]; first compound 0.1265 µM): 1.02 | relative viability ([3]; first compound 0.4 µM): 1.06 | relative viability ([3]; first compound 1.265 µM): 1.1 | relative viability ([4]; first compound 0.04 µM): 0.62 | relative viability ([4]; first compound 0.1265 µM): 0.601 | relative viability ([4]; first compound 0.4 µM): 0.596 | relative viability ([4]; first compound 1.265 µM): 0.537 | relative viability ([5]; first compound 0.04 µM): 0.577 | relative viability ([5]; first compound 0.1265 µM): 0.491 | relative viability ([5]; first compound 0.4 µM): 0.483 | relative viability ([5]; first compound 1.265 µM): 0.308

O=C(O)c1ccc(-c2c[nH]c3ncc(-c4ccccc4)cc23)cc1C1CCCC1 + Nc1nc2[nH]cc(CCc3ccc(C(=O)N[C@@H](CCC(=O)O)C(=O)O)cc3)c2c(=O)[nH]1 [Pemetrexed] (partner 0.2 µM)
relative viability ([1]; first compound 0.04 µM): 0.472 | relative viability ([1]; first compound 0.1265 µM): 0.53 | relative viability ([1]; first compound 0.4 µM): 0.531 | relative viability ([1]; first compound 1.265 µM): 0.479 | relative viability ([2]; first compound 0.04 µM): 0.732 | relative viability ([2]; first compound 0.1265 µM): 0.853 | relative viability ([2]; first compound 0.4 µM): 0.681 | relative viability ([3]; first compound 0.04 µM): 0.829 | relative viability ([3]; first compound 0.1265 µM): 1.04 | relative viability ([3]; first compound 0.4 µM): 0.812 | relative viability ([3]; first compound 1.265 µM): 0.928 | relative viability ([4]; first compound 0.04 µM): 0.603 | relative viability ([4]; first compound 0.1265 µM): 0.622 | relative viability ([4]; first compound 0.4 µM): 0.617 | relative viability ([4]; first compound 1.265 µM): 0.59 | relative viability ([5]; first compound 0.04 µM): 0.756 | relative viability ([5]; first compound 0.1265 µM): 0.885 | relative viability ([5]; first compound 0.4 µM): 0.683 | relative viability ([5]; first compound 1.265 µM): 0.66

NC(=O)Nc1cc(-c2cccc(F)c2)sc1C(=O)N[C@H]1CCCNC1 [AZD7762] + CC(=O)c1c(C)c2cnc(Nc3ccc(N4CCNCC4)cn3)nc2n(C2CCCC2)c1=O [Palbociclib] (partner 0.5 µM)
relative viability ([2]; first compound 0.01 µM): 0.394 | relative viability ([2]; first compound 0.03162 µM): 0.245 | relative viability ([2]; first compound 0.1 µM): 0.277 | relative viability ([2]; first compound 0.3162 µM): 0.27 | relative viability ([2]; first compound 1 µM): 0.283 | relative viability ([3]; first compound 0.01 µM): 1.07 | relative viability ([3]; first compound 0.03162 µM): 0.987 | relative viability ([3]; first compound 0.1 µM): 0.999 | relative viability ([3]; first compound 0.3162 µM): 1.09 | relative viability ([3]; first compound 1 µM): 1 | relative viability ([4]; first compound 0.01 µM): 0.84 | relative viability ([4]; first compound 0.03162 µM): 0.648 | relative viability ([4]; first compound 0.1 µM): 0.709 | relative viability ([4]; first compound 0.3162 µM): 0.589 | relative viability ([4]; first compound 1 µM): 0.652 | relative viability ([5]; first compound 0.01 µM): 0.58 | relative viability ([5]; first compound 0.03162 µM): 0.629 | relative viability ([5]; first compound 0.1 µM): 0.73 | relative viability ([5]; first compound 0.3162 µM): 0.456 | relative viability ([5]; first compound 1 µM): 0.281
